Reference: patent publication US4906662A, “Phenol derivatives, their preparation and the use thereof” (Otsuka Pharmaceutical Factory, Inc., priority 1986, dated 1990)
Counter-ions that a name gives are not always drawn.

Tests used:
[1] = tested on: carrageenin-induced paw edema; experiment: Anti-inflammatory activity: inhibition of carrageenin-induced paw edema in rats; assay type: in vivo, rat (S.D. strain, male); conditions: po, read-out: Percent inhibition of edema; for inhibition in vivo at 100 mg/kg: 100 mg/kg p.o., rat, 3 hours after carrageenin
Protocol: (1) Anti-inflammatory activity:inhibition of carrageenin-induced paw edema in rats The compound was tested for the above activity according to the method of Winter et al. [Proc. Soc. […] One hour after the test compound was orally given to the animal, 0.1 ml of 1% carrageenin solution was subcutaneously injected into the right footpad. The paw volume was measured 3 hours thereafter, and the resulting increase in the volume was calculated based on the volume before the injection of carrageenin solution. The percent inhibition was determined in comparison with the increase in the control group.

[2] = target: T1, 5-lipoxygenase (Cavia porcellus, UniProt A0A286X958); experiment: 5-Lipoxygenase inhibitory activity (5-HETE formation in guinea pig peritoneal exudate cells); assay type: cell-based; conditions: read-out: Percent inhibition of 5-lipoxygenase
T1 construct: endogenous in cells; host or cells: guinea pig peritoneal exudate cells (casein-elicited), intact cell suspension
T1 sequence (A0A286X958 1-674): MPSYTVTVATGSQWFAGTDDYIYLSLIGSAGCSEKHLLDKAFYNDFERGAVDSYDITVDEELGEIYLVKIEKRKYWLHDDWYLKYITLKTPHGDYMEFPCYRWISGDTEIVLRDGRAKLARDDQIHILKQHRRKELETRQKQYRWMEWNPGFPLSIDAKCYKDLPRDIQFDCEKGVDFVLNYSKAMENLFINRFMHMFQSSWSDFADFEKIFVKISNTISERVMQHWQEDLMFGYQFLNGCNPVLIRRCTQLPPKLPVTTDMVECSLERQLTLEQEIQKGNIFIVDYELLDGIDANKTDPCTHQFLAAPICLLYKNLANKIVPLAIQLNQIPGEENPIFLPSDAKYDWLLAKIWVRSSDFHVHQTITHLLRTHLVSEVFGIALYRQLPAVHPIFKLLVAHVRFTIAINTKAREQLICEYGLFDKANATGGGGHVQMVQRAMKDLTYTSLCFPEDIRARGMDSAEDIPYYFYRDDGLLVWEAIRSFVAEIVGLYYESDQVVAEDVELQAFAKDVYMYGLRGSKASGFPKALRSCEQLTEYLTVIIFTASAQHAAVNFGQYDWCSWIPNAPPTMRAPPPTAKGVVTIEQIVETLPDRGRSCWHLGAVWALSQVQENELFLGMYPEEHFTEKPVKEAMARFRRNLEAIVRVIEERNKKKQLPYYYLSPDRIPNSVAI
Protocol: (J. Biol. Chem., 256, 4156 (1981)) and to the method of Ochi et al. (J. Biol. Chem., 258, 5754 (1983). More specifically, 2% casein was intraperitoneally given to a guinea pig, which was bleeded to death 14 to 16 hours thereafter. The peritoneal cavity was washed to collect exudate cells, which were suspended in a phosphate buffer containing 1 mM CaCl2 and 5.5 mM glucose to a concentration of 2.5×10^7 cells/ml. The cell suspension was incubated at 30° C. for 2 minutes. The test compound was then added to the cell suspension, followed by incubation for 2 minutes. With addition of 10 μM of A23187 first and then 10 μM of ^14 C-arachidonic acid to the resulting suspension. Then, the suspension was incubated for 3 minutes. […] The arachidonic acid, 5(S)-hydroxy-6,8,11,14-eicosatetraenoic acid (5-HETE) and other portions were thereafter scraped off, and ^14 C was counted by a scintillator.

| inhibition at 1 µM [2] | inhibition at 10 µM [2] | SMILES | inhibition in vivo at 100 mg/kg [1] | inhibition in vivo at 5 mg/kg ([1]; Rattus norvegicus, 3 h) |
| --- | --- | --- | --- | --- |
| – | – | CC(C)(C)c1cc(Nc2ccccc2/C=C/C(=O)O)cc(C(C)(C)C)c1O [Compound 48, 2-(3,5-di-tert-butyl-4-hydroxyphenylamino)cinnamic acid] | 62% | – |
| 87% | 93% | Cc1cc(Nc2ccccc2)c(C)c(C)c1O [Compound 79, 2,3,6-trimethyl-4-phenylaminophenol] | 47% | – |
| 50% | 88% | CC(C)(C)c1cc(Nc2cccc(CO)c2)cc(C(C)(C)C)c1O [Compound 31, 2,6-di-tert-butyl-4-(3-hydroxymethylphenylamino)phenol hydrochloride] | 33% | – |
| 15% | 57% | CC(C)(C)c1cc(Nc2ccc(N)cc2)cc(C(C)(C)C)c1O [Compound 14] | 42% | – |
| – | – | CC(C)(C)c1cc(Nc2ccc(CC(=O)NN)cc2)cc(C(C)(C)C)c1O [Compound 76, 2,6-di-tert-butyl-4-(4-hydrazinocarbonylmethylphenylamino)phenol] | 47% | – |
| – | – | CSc1ccccc1Nc1cc(C(C)(C)C)c(O)c(C(C)(C)C)c1 [Compound 12] | 41% | – |
| – | – | CC(C)(C)c1cc(Nc2cccc(C(F)(F)F)c2)cc(C(C)(C)C)c1O [Compound 4] | 16% | – |
| – | – | CCCCCCCCCNC(=O)c1ccc(Nc2cc(C(C)(C)C)c(O)c(C(C)(C)C)c2)cc1 [Compound 63] | 29% | – |
| – | – | CC(C)(C)c1cc(Nc2ccc(CC(=O)N3CCOCC3)cc2)cc(C(C)(C)C)c1O [Compound 71] | 20% | – |
| – | – | CCCCCCNC(=O)/C=C/c1cccc(Nc2cc(C(C)(C)C)c(O)c(C(C)(C)C)c2)c1 [Compound 66] | 15% | – |
| – | – | CC(C)(C)c1cc(Nc2ccccc2Cl)cc(C(C)(C)C)c1O [Compound 2] | 12% | – |
| – | – | CC(C)(C)c1cc(Nc2cccc(C(N)=O)c2)cc(C(C)(C)C)c1O [Compound 89] | 31% | – |
| – | – | CC(C)(C)c1cc(Nc2ccc(S(N)(=O)=O)cc2)cc(C(C)(C)C)c1O [Compound 93] | 16% | – |
| – | – | CC(C)(C)c1cc(Nc2ccc(S(C)(=O)=O)cc2)cc(C(C)(C)C)c1O [Compound 92] | 35% | – |
| 2% | 62% | CC(C)(C)c1cc(Nc2ccccc2)cc(C(C)(C)C)c1O [2,6-di-tert-butyl-4-phenylaminophenol, reference compound] | 62% | – |
| – | – | CC(C)(C)c1cc(Nc2ccc(C#N)cc2)cc(C(C)(C)C)c1O [Compound 28, 2,6-di-tert-butyl-4-(4-cyanophenylamino)phenol] | 58% | – |
| – | 49% | COc1ccc(Nc2cc(C(C)(C)C)c(O)c(C(C)(C)C)c2)cc1 [Compound 7] | 41% | – |
| – | – | CC(C)(C)c1cc(Nc2ccccc2O)cc(C(C)(C)C)c1O [Compound 3] | 25% | – |
| – | – | COc1ccc2c(c1)c(CC(=O)O)c(C)n2C(=O)c1ccc(Cl)cc1 [indomethacin, reference compound] | – | 62% |
| – | – | CCCCCC(=O)/C=C/c1cccc(Nc2cc(C(C)(C)C)c(O)c(C(C)(C)C)c2)c1 [Compound 51] | 10% | – |
| 24% | 36% | CC(C)(C)c1cc(Nc2ccc(F)cc2)cc(C(C)(C)C)c1O [Compound 1, 2,6-di-tert-butyl-4-(4-fluorophenylamino)phenol] | 57% | – |
| 34% | 63% | CC(C)(C)c1cc(Nc2ccccc2CO)cc(C(C)(C)C)c1O [Compound 32, 2,6-di-tert-butyl-4-(2-hydroxymethylphenylamino)phenol] | 74% | – |
| – | – | CC(C)(C)c1cc(Nc2ccc(Cl)cc2CO)cc(C(C)(C)C)c1O [Compound 38, 2,6-di-tert-butyl-4-(4-chloro-2-hydroxymethylphenylamino)phenol] | 79% | – |
